{"source": "paper PMC7178755", "about": "(Toxicology and applied pharmacology, 2019)", "assay": "Plasma toxicokinetics after single gavage administration in mice", "assay_type": "in vivo, B6C3F1/N mice", "conditions": "for half-life / AUC(0-inf) / Cmax / Tmax / bioavailability: 34 mg/kg; for bioavailability: AUC/Dose (oral) ÷ AUC/Dose (IV) x 100", "key": {"[1]": {"conditions": "female, B6C3F1/N, mouse, plasma, po"}, "[2]": {"conditions": "free BPAF, female B6C3F1/N mice, 34 mg/kg gavage"}, "[3]": {"conditions": "free BPAF, female mice, 34 mg/kg gavage, plasma, mean (SE)"}, "[4]": {"conditions": "free BPAF, male mice, 34 mg/kg gavage, plasma, mean (SE)"}, "[5]": {"conditions": "male, B6C3F1/N, mouse, plasma, po"}}, "note": "Several values for one entry are separate records, joined by “and”; a condition that tells them apart may be missing. Equal values may be shown once."}
{"smiles": "Oc1ccc(C(c2ccc(O)cc2)(C(F)(F)F)C(F)(F)F)cc1", "note": "[BPAF, Bisphenol AF]", "values": [{"measurement": "half-life", "setting": "both, B6C3F1/N, mouse, plasma, po, elimination half-life, free BPAF, male and female mice, 34 mg/kg gavage", "value": "≤ 4.22", "unit": "h"}, {"measurement": "AUC(0-inf)", "setting": "[1]", "value": "495 ng·h/mL and 1.47 µM·h"}, {"measurement": "Cmax", "setting": "[1]", "value": "105 ng/mL and 313 nM"}, {"measurement": "Tmax", "setting": "[1]", "value": 0.342, "unit": "h"}, {"measurement": "half-life", "setting": "female, B6C3F1/N, mouse, plasma, po, Alpha Half-life, free BPAF, female mice, 34 mg/kg gavage, mean (SE)", "value": 0.209, "unit": "h"}, {"measurement": "half-life", "setting": "female, B6C3F1/N, mouse, plasma, po, Beta Half-life, free BPAF, female mice, 34 mg/kg gavage, mean (SE)", "value": 9.02, "unit": "h"}, {"measurement": "bioavailability", "setting": "female, B6C3F1/N, mouse, plasma, po, Bioavailability, free BPAF, Female Mice, 34 mg/kg gavage", "value": 3, "unit": "%"}, {"measurement": "half-life", "setting": "female, B6C3F1/N, mouse, plasma, po, K10 Half-Life, free BPAF, female mice, 34 mg/kg gavage, mean (SE)", "value": 1.33, "unit": "h"}, {"measurement": "bioavailability", "setting": "free BPAF, Female Mice, 34 mg/kg gavage", "value": 3.13, "unit": "%"}, {"measurement": "bioavailability", "setting": "free BPAF, Male Mice, 34 mg/kg gavage", "value": 5.64, "unit": "%"}, {"measurement": "Dose-normalized AUC0−∞", "setting": "[2]", "value": "14.6 (nmol.h/mL)/(mmol/kg)"}, {"measurement": "Dose-normalized Cmax", "setting": "[2]", "value": "3.099 (nmol/mL)/(mmol/kg)"}, {"measurement": "Cl1_F", "setting": "[3]", "value": "68.7 (22.5) L/h/kg"}, {"measurement": "Cl2_F", "setting": "[3]", "value": "313 (17400) L/h /kg"}, {"measurement": "K12", "setting": "[3]", "value": "2.38 (899) 1/h"}, {"measurement": "K21", "setting": "[3]", "value": "0.487 (0.497) 1/h"}, {"measurement": "V1_F", "setting": "[3]", "value": "131 (42200) L/kg"}, {"measurement": "V2_F", "setting": "[3]", "value": "642 (35300) L/kg"}, {"measurement": "Cl1_F", "setting": "[4]", "value": "80.0 (22.5) L/h/kg"}, {"measurement": "Cl2_F", "setting": "[4]", "value": "13.2 (226) L/h /kg"}, {"measurement": "K12", "setting": "[4]", "value": "0.0271 (0.476) 1/h"}, {"measurement": "K21", "setting": "[4]", "value": "0.369 (5.1) 1/h"}, {"measurement": "V1_F", "setting": "[4]", "value": "487 (238) L/kg"}, {"measurement": "AUC(0-inf)", "setting": "[5]", "value": 425, "unit": "ng·h/mL"}, {"measurement": "Cmax", "setting": "[5]", "value": 64.1, "unit": "ng/mL"}, {"measurement": "Tmax", "setting": "[5]", "value": 0.455, "unit": "h"}, {"measurement": "half-life", "setting": "male, B6C3F1/N, mouse, plasma, po, Alpha Half-life, free BPAF, male mice, 34 mg/kg gavage, mean (SE)", "value": 1.67, "unit": "h"}, {"measurement": "half-life", "setting": "male, B6C3F1/N, mouse, plasma, po, Beta Half-life, free BPAF, male mice, 34 mg/kg gavage, mean (SE)", "value": 4.73, "unit": "h"}, {"measurement": "bioavailability", "setting": "male, B6C3F1/N, mouse, plasma, po, Bioavailability, free BPAF, Male Mice, 34 mg/kg gavage", "value": "~6", "unit": "%"}, {"measurement": "half-life", "setting": "male, B6C3F1/N, mouse, plasma, po, K10 Half-Life, free BPAF, male mice, 34 mg/kg gavage, mean (SE)", "value": 4.22, "unit": "h"}]}
